“Also recorded” adds a separate entry of the source. Where two headings read alike, the source gives them in different places.
Columns and labels:
[1] = Solubility in isotonic aqueous solutions of sodium chloride; conditions: salts
[2] = Animals; cited from earlier work
Tumor [3] = conditions: Animals; cited from earlier work
[4] = test system: non-small cell lung cancer; conditions: cited from earlier work
[5] = test system: tissue type plasminogen activator (tPA); conditions: infusions in humans; cited from earlier work
Tumor [6] = conditions: Cells/Organ; cited from earlier work
SA + AV node = conditions: Cells/Organ; cited from earlier work
[7] = intramuscular; cited from earlier work
[8] = intravenous, cited from earlier work
[9] = Animals; cited from earlier work; remark: listed apart in the source
[10] = Patients; cited from earlier work
Airway mucosa [11] = conditions: Patients, cited from earlier work; for Mucociliary clearance: epithelia of cystic fibrosis patients; for Chloride secretion: observed in epithelia of healthy participants and cystic fibrosis patients
[12] = cited from earlier work
[13] = Patients; cited from earlier work; remark: listed apart in the source
[14] = Animals; cited from earlier work; remark: listed apart in the source
[15] = single arm study; cited from earlier work
Tumor [16] = conditions: Patients; cited from earlier work
[17] = of seven children; infused directly into the pulmonary artery for 30 minutes to 30 hours; cited from earlier work
[18] = Stability of ATP solutions; format: physicochemical
Experimental: An example of a clinical procedure in the treatment of ALI and ARDS is as follows. After determination of baseline, pre-treatment hemodynamic variables, blood gases and pH values, an ATP dose escalation procedure is initiated. ATP is provided as a sterile solution in single use vials. […] Storage of the clinical solution is at controlled refrigerated temperature (2° C.-8° C. ). […] The concentration of the final sterile solution for the infusion is 8 mg/ml.
The product must be stored at controlled refrigerated temperature (2° C.-[…]). At pH 6.7-7.2, the sodium salt in aqueous solution is stable.

[19] = infusions; rat kidney, rat lung, dog heart, rabbit lung, rat gut; cited from earlier work
[20] = Cells/Organ; cited from earlier work
[21] = intravenous; cited from earlier work
[22] = cited from earlier work; remark: listed apart in the source
[23] = in vivo; cited from earlier work
[24] = Cells/Organ; cited from earlier work; remark: listed apart in the source
[25] = Patients; cited from earlier work; remark: listed apart in the source
[26] = cited from earlier work; for whole blood ATP concentration, higher than the pretreatment values: 24 hr of infusion, average
[27] = low doses, intravenous; cited from earlier work
[28] = cited from earlier work; remark: listed apart in the source
Airway mucosa [29] = conditions: Cells/Organ; cited from earlier work
[30] = Patients; cited from earlier work; remark: listed apart in the source
[31] = 50 or 65 microgram/kg/min for 96 hr, once every 4 weeks
[32] = ATP infusion rate 500-1000 μg/kg/min
[33] = ATP infusion rate ≦100 μg/kg/min
[34] = administration directly into the pulmonary artery or into the superior vena cava
[35] = healthy individuals, COPD patients, patients after surgical repair of congenital heart defects

Structure (SMILES): Nc1ncnc2c1ncn2[C@@H]1O[C@H](COP(=O)(O)OP(=O)(O)O)[C@@H](O)[C@H]1O [ADP, adenosine 5′-diphosphate]
- solubility in isotonic aqueous solutions of sodium chloride [1]: high solubility

Structure (SMILES): Nc1ncnc2c1ncn2[C@@H]1O[C@H](COP(=O)(O)O)[C@@H](O)[C@H]1O [AMP, adenosine 5′-monophosphate]
- solubility in isotonic aqueous solutions of sodium chloride [1]: high solubility

Structure (SMILES): Nc1ncnc2c1ncn2[C@@H]1O[C@H](COP(=O)(O)OP(=O)(O)OP(=O)(O)O)[C@@H](O)[C@H]1O [ATP, adenosine 5′-triphosphate]
- Anaesthetic requirement [2]: Reduced
- Pain [2]: Reduced
- Cancer treatment: Weight loss (Tumor [3]): Inhibited
- Chemotherapy efficacy (Tumor [3]): Increased
- Radiotherapy damage (Tumor [3]): Reduced
- Radiotherapy efficacy (Tumor [3]): Increased
- Radiotherapy survival rate (Tumor [3]): Increased
- Tumor growth (Tumor [3]): Inhibited
- hematologic, renal, hepatic, or gastrointestinal toxicity [4, 31]: No significant
- patients exhibiting stable disease after treatment [4, 31]: majority of patients
- tumor shrinking [4, 31]: no significant
- overall survival ([4]; as compared with historical data): beneficial effects
- patient performance status ([4]; in vivo): beneficial effects
- weight gain ([4]; in vivo): beneficial effects
- release of tissue-type plasminogen activator (tPA) [5]: profound acute release; also recorded: marked release
- Chemotherapy efficacy (Tumor [6]): Increased
- Radiotherapy damage (Tumor [6]): Reduced
- Radiotherapy efficacy (Tumor [6]): Increased
- Tumor growth (Tumor [6]): Inhibited
- SA + AV node conduction (SA + AV node): Inhibited
- protecting the intestinal mucosal structure and function [7]: effective
- Cardiac Output [8, 32]: Increase
- Heart Rate [8, 32]: Increase
- Pulmonary Arterial Pressure [8, 32]: Decrease
- Pulmonary Vascular Resistance [8, 32]: Decrease
- Systemic Arterial Pressure [8, 32]: Decrease
- Systemic Vascular Resistance [8, 32]: Decrease
- Cardiac Output [8, 33]: Small Increase
- Heart Rate [8, 33]: No Change
- Pulmonary Arterial Pressure [8, 33]: Decrease
- Pulmonary Vascular Resistance [8, 33]: Decrease
- Systemic Arterial Pressure [8, 33]: did not alter; also recorded: No Change
- Systemic Vascular Resistance [8, 33]: Small Decrease
- Pulmonary hypertension [9]: Reduced
- Anaesthetic requirement [10]: Reduced
- Blood pressure during surgery [10]: Reduced
- Opioid requirement after surgery [10]: Reduced
- Pain [10]: Reduced
- Mucociliary clearance (Airway mucosa [11]): Increased
- Chloride secretion (Airway mucosa [11]): Increased
- Pulmonary Arterial Pressure [12, 34]: reducing
- Pulmonary Vascular Resistance [12, 34]: reducing
- Systemic Arterial Pressure [12, 34]: without any direct effect
- Systemic Vascular Resistance [12, 34]: without any direct effect
- Pulmonary Arterial Pressure [12, 35]: significantly decreasing
- Pulmonary Vascular Resistance [12, 35]: significantly decreasing
- Pulmonary hypertension [13]: Reduced
- Shock: Organ function [14]: Improved
- Shock: Survival rate [14]: Increased
- several metabolic functions [15]: beneficial
- Cancer treatment: Weight loss (Tumor [16]): Inhibited
- Tumor growth (Tumor [16]): Inhibited
- children in whom hypertension crises were completely resolved and hemodynamic stability restored [17]: 4 children
- stability of the final ATP solutions at room temperature ([18]; final infusion solution 8 mg/ml in 0.5 normal saline, room temperature): at least 96 hours
- stability of the sodium salt in aqueous solution ([18]; pH 6.7-7.2): stable
- tissue injury during reperfusion after a preceding period of ischemia [19]: protective effects
- Glycogenolysis [20]: Increased
- Cardiac Output [21]: enhances
- portal and total hepatic blood flow [21]: enhances
- renal and hepatic microcirculation [21]: enhances
- maximum tolerated dose ([22]; 96-hr infusions, advanced non-small cell lung cancer): 50 microgram/kg/min
- highest dose easily tolerated ([22]; patients suffering from other cancers): 100 microgram/kg/min
- survival [23]: significant positive effects
- Shock: Organ function [24]: Improved
- Shock: Survival rate [25]: Increased
- whole blood ATP concentration, higher than the pretreatment values ([26]; 50 microgram/kg/min): 63%
- whole blood ATP concentration, higher than the pretreatment values ([26]; 75 microgram/kg/min): 67%
- whole blood ATP concentration, higher than the pretreatment values ([26]; 100 microgram/kg/min): 113%
- blood concentrations of ATP between 24 and 96 hr of the infusion ([26]; in vivo): relatively constant or slightly declined
- resolving pulmonary hypertension [27]: effective
- severity of adverse experiences ([28]; 30-hr infusions, 20 up to 75 microgram/kg/min): generally mild
- Quality of Life domains ([28]; in vivo): improvements
- body weight ([28]; in vivo): beneficial effects
- electrocardiograms in patients with chest discomfort ([28]; in vivo): did not exhibit changes suggestive of myocardial ischemia
- time to resolution of all side effects after lowering the rate of ATP infusion ([28]; in vivo): within minutes
- voluntary muscle strength ([28]; in vivo): beneficial effects
- Chloride secretion (Airway mucosa [29]): Increased
- Ciliary beat frequency (Airway mucosa [29]): Increased
- Mucus secretion (Airway mucosa [29]): Increased
- Surfactant secretion (Airway mucosa [29]): Increased
- Water secretion (Airway mucosa [29]): Increased
- SA + AV node conduction [30]: Inhibited
- Supraventricular tachycardias [30]: Inhibited

Structure (SMILES): Nc1ncnc2c1ncn2[C@@H]1O[C@H](CO)[C@@H](O)[C@H]1O [adenosine, reference compound]
- Cancer treatment: Weight loss (Tumor [3]): Inhibited
- Chemotherapy efficacy (Tumor [3]): Increased
- Radiotherapy damage (Tumor [3]): Reduced
- Radiotherapy efficacy (Tumor [3]): Increased
- Radiotherapy survival rate (Tumor [3]): Increased
- Tumor growth (Tumor [3]): Inhibited
- Chemotherapy efficacy (Tumor [6]): Increased
- Radiotherapy damage (Tumor [6]): Reduced
- Radiotherapy efficacy (Tumor [6]): Increased
- Tumor growth (Tumor [6]): Inhibited
- SA + AV node conduction (SA + AV node): Inhibited
- Mucociliary clearance (Airway mucosa [11]): Increased
- Chloride secretion (Airway mucosa [11]): Increased
- Cancer treatment: Weight loss (Tumor [16]): Inhibited
- Tumor growth (Tumor [16]): Inhibited
- solubility in isotonic aqueous solutions of sodium chloride [1]: high solubility
- Chloride secretion (Airway mucosa [29]): Increased
- Ciliary beat frequency (Airway mucosa [29]): Increased
- Mucus secretion (Airway mucosa [29]): Increased
- Surfactant secretion (Airway mucosa [29]): Increased
- Water secretion (Airway mucosa [29]): Increased

From patent US20030109486A1 (priority 2001, published 2003)
